Converted amounts (≈) assume the structure as drawn. Where two headings read alike, the source gives them in different places. Numbered stars: 1 amine (or outer) side, 2 acyl side, 3 side chain; on linkers, the order of the positions; unused ones are H or OH. Bridge positions count the residues as written; N and C are the ends. Side chains are listed from the residue outwards. Peptide text beside a SMILES is read from it. * marks the point of attachment. C20 diacid = O=C(O)CCCCCCCCCCCCCCCCCCC(=O)*; γGlu = O=C(O)[C@H](CCC(=O)[*:2])N[*:1]; AEEA = NCCOCCOCC(=O)O
Key:
[1] = ASSAY (IV) determination of solubility; assay type: physicochemical
Method in brief: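 Polypeptide stock in water ([…]) was mixed 1:1 with 100 mM buffers: glycylglycine at pH 3.0, 4.0, 5.0 and bistrispropane at pH 6.0, 6.5, 7.0, 7.5, 8.0. After 18 hours at room temperature, samples were centrifuged and polypeptide concentration measured by UPLC.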

[2] = target: T1, human calcitonin (a) receptor in BHK570 cells (Homo sapiens, UniProt P30988); experiment: ASSAY (II)a functional assay, human calcitonin receptor (CRE luciferase); assay type: cell-based; conditions: read-out: hCTR funct. EC50
T1 construct: expressed in transfected cells
T1 sequence (P30988 25-474): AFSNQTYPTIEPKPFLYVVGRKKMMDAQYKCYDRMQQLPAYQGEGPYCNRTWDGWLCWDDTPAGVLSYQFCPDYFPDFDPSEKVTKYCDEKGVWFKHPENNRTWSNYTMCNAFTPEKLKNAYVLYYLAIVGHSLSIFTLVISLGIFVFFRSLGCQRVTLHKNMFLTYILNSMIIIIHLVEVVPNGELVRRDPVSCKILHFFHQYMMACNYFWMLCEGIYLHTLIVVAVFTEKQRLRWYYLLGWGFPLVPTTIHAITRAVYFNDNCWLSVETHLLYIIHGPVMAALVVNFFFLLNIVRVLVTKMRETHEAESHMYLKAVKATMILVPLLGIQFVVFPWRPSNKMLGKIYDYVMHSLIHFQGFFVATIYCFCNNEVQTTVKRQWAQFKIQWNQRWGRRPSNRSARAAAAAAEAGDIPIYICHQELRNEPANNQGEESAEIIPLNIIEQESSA
Method in brief: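 BHK CRE-luc cells, calcitonin (a) receptor ± RAMP-3 (amylin 3(a)); overnight seeding, 37° C/5% CO2. 3 h ligand exposure, DMEM/10% FBS/10 mM Hepes pH 7.4. LucLite 30 min RT; luminescence (SPC).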

[3] = target: T2, human calcitonin receptor (Homo sapiens, UniProt P30988); experiment: ASSAY (VII) binding to the human calcitonin receptor (SPA, 125I-Calcitonin); conditions: read-out: hCTR bind IC50;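 further: cell membranes (35 ng/µL) combined with SPA beads in 40 µL of pH 7.4 Hepes buffer, 384-well format, signal counted on a TopCounter instrument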
T2 construct: expressed in transfected cells
T2 sequence (P30988 25-474): T1 sequence (P30988 25-474)

[4] = bistrispropane buffer, pH 6.5, read-out: Solubility pH 6.5 Concentration
[5] = bistrispropane buffer, pH 7.5, read-out: Solubility pH 7.5 Concentration
[6] = bistrispropane buffer, pH 6.0, read-out: Solubility pH 6.0 Concentration
[7] = bistrispropane buffer, pH 7.0, read-out: Solubility pH 7.0 Concentration
[8] = bistrispropane buffer, pH 8.0, read-out: Solubility pH 8.0 Concentration
[9] = glycylglycine buffer, pH 3.0, read-out: Solubility pH 3.0 Concentration
[10] = glycylglycine buffer, pH 4.0, read-out: Solubility pH 4.0 Concentration
[11] = glycylglycine buffer, pH 5.0, read-out: Solubility pH 5.0 Concentration

solubility at 18 h [1, 4] [µM]	solubility at 18 h [1, 5] [µM]	solubility at 18 h [1, 6] [µM]	solubility at 18 h [1, 7] [µM]	solubility at 18 h [1, 8] [µM]	solubility at 18 h [1, 9] [µM]	solubility at 18 h [1, 10] [µM]	solubility at 18 h [1, 11] [µM]	EC50 [2] [nM]	IC50 [3] [nM]	SMILES
≥ 200	≥ 200	≥ 200	≥ 200	≥ 200	≥ 200	≥ 200	≥ 200	3.43	15.5	CC[C@H](C)[C@H](NC(=O)[C@H](C)NC(=O)CNC(=O)[C@H](Cc1ccccc1)NC(=O)[C@H](CC(N)=O)NC(=O)[C@@H]1CCCN1C(=O)[C@H](CO)NC(=O)[C@H](CO)NC(=O)[C@H](Cc1c[nH]cn1)NC(=O)[C@H](CCCNC(=N)N)NC(=O)[C@H](CC(C)C)NC(=O)[C@H](Cc1ccccc1)NC(=O)[C@H](CCC(=O)O)NC(=O)[C@H](C)NC(=O)[C@H](CC(C)C)NC(=O)[C@H](CCCNC(=N)N)NC(=O)[C@H](CCC(N)=O)NC(=O)[C@@H](NC(=O)[C@H](C)NC(=O)[C@@H]1CSSC[C@H](NC(=O)[C@H](CCCCN)NC(=O)CC[C@H](NC(=O)CC[C@H](NC(=O)CCCCCCCCCCCCCCCCCCC(=O)O)C(=O)O)C(=O)O)C(=O)N[C@@H](CC(N)=O)C(=O)N[C@@H]([C@@H](C)O)C(=O)N[C@@H](C)C(=O)N[C@@H]([C@@H](C)O)C(=O)N1)[C@@H](C)O)C(=O)N1CCC[C@H]1C(=O)N[C@@H](CO)C(=O)N[C@@H](CO)C(=O)N[C@H](C(=O)N[C@@H](CC(N)=O)C(=O)N[C@H](C(=O)NCC(=O)N[C@@H](CO)C(=O)N[C@@H](CC(N)=O)C(=O)N[C@H](C(=O)N[C@@H](Cc1ccc(O)cc1)C(N)=O)[C@@H](C)O)C(C)C)[C@@H](C)O [Example 15] ({C20 diacid-γGlu-γGlu}-KCNTATCATQRLAEFLRHSSPNFGAIPSSTNVGSNTY-NH2; disulfide 2-7 (inferred))
≥ 200	159 (≈ 707 µg/mL)	≥ 200	≥ 200	154 (≈ 685 µg/mL)	≥ 200	≥ 200	≥ 200	2.35	10.9	CC[C@H](C)[C@H](NC(=O)[C@H](C)NC(=O)CNC(=O)[C@H](Cc1ccccc1)NC(=O)[C@H](CC(N)=O)NC(=O)[C@@H]1CCCN1C(=O)[C@H](CO)NC(=O)[C@H](CO)NC(=O)[C@H](Cc1c[nH]cn1)NC(=O)[C@H](CCCNC(=N)N)NC(=O)[C@H](CC(C)C)NC(=O)[C@H](Cc1ccccc1)NC(=O)[C@H](CCC(=O)O)NC(=O)[C@H](C)NC(=O)[C@H](CC(C)C)NC(=O)[C@H](CCCNC(=N)N)NC(=O)[C@H](CCC(N)=O)NC(=O)[C@@H](NC(=O)[C@H](C)NC(=O)[C@@H]1CSSC[C@H](NC(=O)[C@H](CCCCN)NC(=O)CC[C@H](NC(=O)CCCCCCCCCCCCCCCCCCC(=O)O)C(=O)O)C(=O)N[C@@H](CC(N)=O)C(=O)N[C@@H]([C@@H](C)O)C(=O)N[C@@H](C)C(=O)N[C@@H]([C@@H](C)O)C(=O)N1)[C@@H](C)O)C(=O)N1CCC[C@H]1C(=O)N[C@@H](CO)C(=O)N[C@@H](CO)C(=O)N[C@H](C(=O)N[C@@H](CC(N)=O)C(=O)N[C@H](C(=O)NCC(=O)N[C@@H](Cc1c[nH]cn1)C(=O)N[C@@H](CC(N)=O)C(=O)N[C@H](C(=O)N[C@@H](Cc1ccc(O)cc1)C(N)=O)[C@@H](C)O)C(C)C)[C@@H](C)O [Example 17] ({C20 diacid-γGlu}-KCNTATCATQRLAEFLRHSSPNFGAIPSSTNVGHNTY-NH2; disulfide 2-7 (inferred))
≥ 200	122 (≈ 539 µg/mL)	≥ 200	177 (≈ 782 µg/mL)	111 (≈ 491 µg/mL)	≥ 200	≥ 200	≥ 200	0.742	5.09	CC[C@H](C)[C@H](NC(=O)[C@H](C)NC(=O)CNC(=O)[C@H](Cc1ccccc1)NC(=O)[C@H](CC(N)=O)NC(=O)[C@@H]1CCCN1C(=O)[C@H](CO)NC(=O)[C@H](CO)NC(=O)[C@H](Cc1c[nH]cn1)NC(=O)[C@H](CCCNC(=N)N)NC(=O)[C@H](CC(C)C)NC(=O)[C@H](Cc1ccccc1)NC(=O)[C@H](CCC(=O)O)NC(=O)[C@H](C)NC(=O)[C@H](CC(C)C)NC(=O)[C@H](CCCNC(=N)N)NC(=O)[C@H](CCC(N)=O)NC(=O)[C@@H](NC(=O)[C@H](C)NC(=O)[C@@H]1CSSC[C@H](NC(=O)[C@H](CCCCN)NC(=O)CC[C@H](NC(=O)CCCCCCCCCCCCCCCCCCC(=O)O)C(=O)O)C(=O)N[C@@H](CC(N)=O)C(=O)N[C@@H]([C@@H](C)O)C(=O)N[C@@H](C)C(=O)N[C@@H]([C@@H](C)O)C(=O)N1)[C@@H](C)O)C(=O)N1CCC[C@H]1C(=O)N[C@@H](CO)C(=O)N[C@@H](CO)C(=O)N[C@H](C(=O)N[C@@H](CC(N)=O)C(=O)N[C@H](C(=O)NCC(=O)N[C@@H](CO)C(=O)N[C@@H](Cc1c[nH]cn1)C(=O)N[C@H](C(=O)N[C@@H](Cc1ccc(O)cc1)C(N)=O)[C@@H](C)O)C(C)C)[C@@H](C)O [Example 18] ({C20 diacid-γGlu}-KCNTATCATQRLAEFLRHSSPNFGAIPSSTNVGSHTY-NH2; disulfide 2-7)
≥ 200	≥ 200	≥ 200	≥ 200	≥ 200	≥ 200	≥ 200	≥ 200	6.34	25.3	CC[C@H](C)[C@H](NC(=O)[C@H](C)NC(=O)CNC(=O)[C@H](Cc1ccccc1)NC(=O)[C@H](CC(N)=O)NC(=O)[C@@H]1CCCN1C(=O)[C@H](CO)NC(=O)[C@H](CO)NC(=O)[C@H](Cc1c[nH]cn1)NC(=O)[C@H](CCCNC(=N)N)NC(=O)[C@H](CC(C)C)NC(=O)[C@H](Cc1ccccc1)NC(=O)[C@H](CC(N)=O)NC(=O)[C@H](C)NC(=O)[C@H](CC(C)C)NC(=O)[C@H](CCCNC(=N)N)NC(=O)[C@H](CCC(N)=O)NC(=O)[C@@H](NC(=O)[C@H](C)NC(=O)[C@@H]1CSSC[C@H](NC(=O)[C@@H](N)CCCCNC(=O)COCCOCCNC(=O)CC[C@H](NC(=O)CCCCCCCCCCCCCCCCCCC(=O)O)C(=O)O)C(=O)N[C@@H](CC(N)=O)C(=O)N[C@@H]([C@@H](C)O)C(=O)N[C@@H](C)C(=O)N[C@@H]([C@@H](C)O)C(=O)N1)[C@@H](C)O)C(=O)N1CCC[C@H]1C(=O)N[C@@H](CO)C(=O)N[C@@H](CO)C(=O)N[C@H](C(=O)N[C@@H](CC(N)=O)C(=O)N[C@H](C(=O)NCC(=O)N[C@@H](CO)C(=O)N[C@@H](CCC(=O)O)C(=O)N[C@H](C(=O)N[C@@H](Cc1ccc(O)cc1)C(N)=O)[C@@H](C)O)C(C)C)[C@@H](C)O [Example 26] (H-K([AEEA-γGlu-C20 diacid])CNTATCATQRLANFLRHSSPNFGAIPSSTNVGSETY-NH2; disulfide 2-7; N-terminus assumed)

SMILES	solubility at 18 h [1, 4] [µM]	solubility at 18 h [1, 5] [µM]	solubility at 18 h [1, 6] [µM]	solubility at 18 h [1, 7] [µM]	solubility at 18 h [1, 8] [µM]	solubility at 18 h [1, 9] [µM]	solubility at 18 h [1, 10] [µM]	solubility at 18 h [1, 11] [µM]	EC50 [2] [nM]	IC50 [3] [nM]
CC[C@H](C)[C@H](NC(=O)[C@H](C)NC(=O)CNC(=O)[C@H](Cc1ccccc1)NC(=O)[C@H](CC(N)=O)NC(=O)[C@@H]1CCCN1C(=O)[C@H](CO)NC(=O)[C@H](CO)NC(=O)[C@H](Cc1c[nH]cn1)NC(=O)[C@H](CCCNC(=N)N)NC(=O)[C@H](CC(C)C)NC(=O)[C@H](Cc1ccccc1)NC(=O)[C@H](CCC(=O)O)NC(=O)[C@H](C)NC(=O)[C@H](CC(C)C)NC(=O)[C@H](CCCNC(=N)N)NC(=O)[C@H](CCC(N)=O)NC(=O)[C@@H](NC(=O)[C@H](C)NC(=O)[C@@H]1CSSC[C@H](NC(=O)[C@H](CCCCN)NC(=O)COCCOCCNC(=O)COCCOCCNC(=O)CC[C@H](NC(=O)CCCCCCCCCCCCCCCCCCC(=O)O)C(=O)O)C(=O)N[C@@H](CC(N)=O)C(=O)N[C@@H]([C@@H](C)O)C(=O)N[C@@H](C)C(=O)N[C@@H]([C@@H](C)O)C(=O)N1)[C@@H](C)O)C(=O)N1CCC[C@H]1C(=O)N[C@@H](CO)C(=O)N[C@@H](CO)C(=O)N[C@H](C(=O)N[C@@H](CC(N)=O)C(=O)N[C@H](C(=O)NCC(=O)N[C@@H](CO)C(=O)N[C@@H](CC(N)=O)C(=O)N[C@H](C(=O)N1CCC[C@H]1C(N)=O)[C@@H](C)O)C(C)C)[C@@H](C)O [Example 20] ({C20 diacid-γGlu-AEEA-AEEA}-KCNTATCATQRLAEFLRHSSPNFGAIPSSTNVGSNTP-NH2; disulfide 2-7)	≥ 200	≥ 200	≥ 200	≥ 200	≥ 200	≥ 200	≥ 200	≥ 200	0.285	0.787

From US9023789B2, “Amylin analogs and pharmaceutical compositions thereof” (Novo Nordisk A/S, priority 2012, dated 2015)
